From patent US11180462B2, “Microbiocidal oxadiazole derivatives” (SYNGENTA PARTICIPATIONS AG, priority 2015, dated 2021) come the findings set out here.

Data set [1] relates to Puccinia recondita f. Sp. Tritici. The experiment in a line: Fungicidal activity against Puccinia recondita f. sp. tritici / wheat / leaf disc preventative (brown rust). Format: in vivo. The following applies: foliar, 200 ppm in the applied formulation, wheat leaf segments, preventative, compared to untreated control leaf disks, read-out: disease control. The method, boiled down:
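Preventative leaf-segment test, wheat cv. Kanzler on water agar. Spray compound at 200 ppm, inoculate with spores 1 day later; 19° C., 75% rh, 12/12 h light. Read-out: % disease control vs untreated, 7 to 9 days after application.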

The test system is the same in data set [2]. Briefly: Fungicidal activity against Puccinia recondita f. sp. tritici / wheat / leaf disc curative (brown rust). Format: in vivo. As to conditions: foliar, 24 h, 200 ppm in the applied formulation, wheat leaf segments, curative (applied 1 day after inoculation), compared to untreated control leaf disks, read-out: disease control. The gist of the method:
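Segments of wheat cv. Kanzler were laid on agar and inoculated with a spore suspension of the rust, then held in darkness at 19° C and 75% relative humidity. One day later the water-diluted formulated compound was applied, with incubation continued under a 12 h light/dark cycle.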

A further data set relates to Phakopsora Pachyrhizi. Briefly: Fungicidal activity against Phakopsora pachyrhizi / soybean / leaf disc preventative (Asian soybean rust). It counts as in vivo. As to conditions: foliar, 200 ppm in the applied formulation, soybean leaf disks, compared to untreated control leaf disks, read-out: disease control. The method, boiled down: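 Preventative soybean leaf-disc test: discs on water agar sprayed with diluted formulated compound, inoculated one day later with spores on the lower surface. Held 24–36 h dark at 20°C, 75% rh, then 12 h light/day; percent disease control versus untreated discs scored 12–14 days after application.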

The subject of data set [3] is Glomerella lagenarium (Colletotrichum lagenarium). The experiment in a line: Fungicidal activity against Glomerella lagenarium (Colletotrichum lagenarium) liquid culture / cucumber / preventative (anthracnose). As to conditions: Colletotrichum orbiculare; 20 ppm in the applied formulation; liquid culture (PDB), growth inhibition measured photometrically after 3 to 4 days; compared to untreated control; read-out: disease control. It counts as cell-based. The method, boiled down: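 Photometric read-out of fungal growth after 2–7 days, expressed as percent antifungal activity versus untreated check. Cryo-stored conidia in PDB; compound at 20 ppm; dark, 24 °C, 96% RH.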

A word on the melting point: it is the temperature of the solid-liquid transition. In turn, `CON(Cc1ccc(-c2noc(C(F)(F)F)n2)cc1)C(=O)C1CCCN1C(C)=O` (stereo not drawn) [Compound 1.805, 1-acetyl-N-methoxy-N-[[4-[5-(trifluoromethyl)-1,2,4-oxadiazol-3-yl]phenyl]methyl]-pyrrolidine-2-carboxamide] displayed a melting point of 93.9 to 96.8 °C.

`CCC(=O)NC(C)C(=O)N(Cc1ccc(-c2noc(C(F)(F)F)n2)cc1)OC` (stereo not drawn) [Compound 1.797, N-methoxy-2-(propanoylamino)-N-[[4-[5-(trifluoromethyl)-1,2,4-oxadiazol-3-yl]phenyl]methyl]-propanamide] registered a melting point of 121.7 to 123.9 °C.

In turn, `CON(Cc1ccc(-c2noc(C(F)(F)F)n2)cc1)C(=O)CBr` [Compound 1.806, 2-bromo-N-methoxy-N-[[4-[5-(trifluoromethyl)-1,2,4-oxadiazol-3-yl]phenyl]methyl]-acetamide] registered a melting point of 81.2 to 84.9 °C.

In turn, `CCC(=O)N1CCCC1C(=O)N(Cc1ccc(-c2noc(C(F)(F)F)n2)cc1)OC` (stereo not drawn) [Compound 1.803, N-methoxy-1-propanoyl-N-[[4-[5-(trifluoromethyl)-1,2,4-oxadiazol-3-yl]phenyl]methyl]-pyrrolidine-2-carboxamide] came in with a melting point of 148.2 to 150.6 °C.

In the case of `CCN(Cc1ccc(-c2noc(C(F)(F)F)n2)cc1)C(=O)C1CC1F` (stereo not drawn) [Compound 1.511, N-ethyl-2-fluoro-N-[[4-[5-(trifluoromethyl)-1,2,4-oxadiazol-3-yl]phenyl]methyl]-cyclopropane-carboxamide], the pest or weed control at 200 ppm (in data set [1]; in data set [2]; with Phakopsora Pachyrhizi) was ≥ 80% each time. The inhibition of growth at 20 ppm in data set [3] is ≥ 80%.

In the case of `CON(Cc1ccc(-c2noc(C(F)(F)F)n2)cc1)C(=O)CO` [Compound 1.778, 2-hydroxy-N-methoxy-N-[[4-[5-(trifluoromethyl)-1,2,4-oxadiazol-3-yl]phenyl]methyl]-acetamide], the pest or weed control at 200 ppm (in data set [1]; in data set [2]; in the data set on Phakopsora Pachyrhizi) was ≥ 80% each time. Also, in data set [3], the inhibition of growth at 20 ppm is ≥ 80%.

Regarding `CON(Cc1ccc(-c2noc(C(F)(F)F)n2)cc1)C(=O)CC(C)C` [Compound 1.34, N-methoxy-3-methyl-N-[[4-[5-(trifluoromethyl)-1,2,4-oxadiazol-3-yl]phenyl]methyl]-butanamide], the pest or weed control at 200 ppm (in data set [1]; in data set [2]; in the data set on Phakopsora Pachyrhizi) was ≥ 80% throughout. The inhibition of growth at 20 ppm in data set [3] was ≥ 80%.

`CCC(C)C(=O)N(C)Cc1ccc(-c2noc(C(F)(F)F)n2)cc1` (stereo not drawn) [Compound 1.525, N.2-dimethyl-N-[[4-[5-(trifluoromethyl)-1,2,4-oxadiazol-3-yl]phenyl]methyl]-butanamide]: the pest or weed control at 200 ppm (in data set [1]; in data set [2]; in the data set on Phakopsora Pachyrhizi) was ≥ 80% each time. The inhibition of growth at 20 ppm in data set [3] is ≥ 80%.

`CCON(Cc1ccc(-c2noc(C(F)(F)F)n2)cc1)C(=O)C1CCOC1` (stereo not drawn) [Compound 1.617, N-ethoxy-N-[[4-[5-(trifluoromethyl)-1,2,4-oxadiazol-3-yl]phenyl]methyl]-tetrahydrofuran-3-carboxamide]: the pest or weed control at 200 ppm (in data set [1]; in data set [2]; in the data set with Phakopsora Pachyrhizi) was ≥ 80% throughout. Also, the inhibition of growth at 20 ppm in data set [3] is ≥ 80%.

`CON(Cc1ccc(-c2noc(C(F)(F)F)n2)cc1)C(=O)C(C)(C)O` [Compound 1.784, 2-hydroxy-N-methoxy-2-methyl-N-[[4-[5-(trifluoromethyl)-1,2,4-oxadiazol-3-yl]phenyl]methyl]-propanamide]: the pest or weed control at 200 ppm (in data set [1]; in data set [2]; in the data set with Phakopsora Pachyrhizi) was ≥ 80% each time. Further, the inhibition of growth at 20 ppm in data set [3] was ≥ 80%.

For `CON(Cc1ccc(-c2noc(C(F)(F)F)n2)cc1)C(=O)c1ccccc1Cl` [Compound 1.44, 2-chloro-N-methoxy-N-[[4-[5-(trifluoromethyl)-1,2,4-oxadiazol-3-yl]phenyl]methyl]-benzamide], the pest or weed control at 200 ppm (in data set [1]; in data set [2]; with Phakopsora Pachyrhizi) was ≥ 80% in each case. Further, the inhibition of growth at 20 ppm in data set [3] was ≥ 80%.

For `CCCN(Cc1ccc(-c2noc(C(F)(F)F)n2)cc1)C(=O)C1CC1` [Compound 1.574, N-propyl-N-[[4-[5-(trifluoromethyl)-1,2,4-oxadiazol-3-yl]phenyl]methyl]-cyclopropane-carboxamide], the pest or weed control at 200 ppm (in data set [1]; in data set [2]; in the data set on Phakopsora Pachyrhizi) was ≥ 80% throughout. The inhibition of growth at 20 ppm in data set [3] was ≥ 80%.

With `CON(Cc1ccc(-c2noc(C(F)(F)F)n2)cc1)C(=O)N(C)C1CC1` [Compound 3.58, 1-cyclopropyl-3-methoxy-1-methyl-3-[[4-[5-(trifluoromethyl)-1,2,4-oxadiazol-3-yl]phenyl]methyl]urea], the pest or weed control at 200 ppm (in data set [1]; in data set [2]; in the data set with Phakopsora Pachyrhizi) was ≥ 80% in each case. Further, the inhibition of growth at 20 ppm in data set [3] was ≥ 80%.

Take `C#CCN(Cc1ccc(-c2noc(C(F)(F)F)n2)cc1)C(=O)CC=CC` [Compound 1.180, N-prop-2-ynyl-N-[[4-[5-(trifluoromethyl)-1,2.4-oxadiazol-3-yl]phenyl]methyl]-pent-3-enamide]: the pest or weed control at 200 ppm (in data set [1]; in data set [2]; in the data set on Phakopsora Pachyrhizi) was ≥ 80% throughout. For the same compound, the inhibition of growth at 20 ppm in data set [3] is ≥ 80%.

Consider `CCC(C)N(Cc1ccc(-c2noc(C(F)(F)F)n2)cc1)C(=O)COC(C)=O` (stereo not drawn) [Compound 1.392, [2-oxo-2-[sec-butyl-[[4-[5-(trifluoromethyl)-1,2,4-oxadiazol-3-yl]phenyl]methyl]-amino]ethyl] acetate], for which the pest or weed control at 200 ppm (in data set [1]; in data set [2]; with Phakopsora Pachyrhizi) was ≥ 80% each time. The inhibition of growth at 20 ppm in data set [3] is ≥ 80%.

In the case of `CCC(=O)N(Cc1ccc(-c2noc(C(F)(F)F)n2)c(F)c1F)OC` [Compound 1.585, N-[[2,3-difluoro-4-[5-(trifluoromethyl)-1,2,4-oxadiazol-3-yl)phenyl]methyl)-N-methoxy-propanamide], the pest or weed control at 200 ppm (in data set [1]; in data set [2]; with Phakopsora Pachyrhizi) was ≥ 80% in each case. Besides, the inhibition of growth at 20 ppm in data set [3] is ≥ 80%.

Turning to `O=C(CC1CC1)N(Cc1ccc(-c2noc(C(F)(F)F)n2)cc1)C1CC1` [Compound 1.99, N,2-dicyclopropyl-N-[[4-[5-(trifluoromethyl)-1,2,4-oxadiazol-3-yl]phenyl]methyl]-acetamide], the pest or weed control at 200 ppm (in data set [1]; in data set [2]; in the data set on Phakopsora Pachyrhizi) was ≥ 80% throughout. Moreover, in data set [3], the inhibition of growth at 20 ppm was ≥ 80%.

`CCCN(Cc1ccc(-c2noc(C(F)(F)F)n2)cc1)C(=O)C(C)OC` (stereo not drawn) [Compound 1.666, 2-methoxy-N-propyl-N-[[4-[5-(trifluoromethyl)-1,2,4-oxadiazol-3-yl]phenyl]methyl]-propanamide]: the pest or weed control at 200 ppm (in data set [1]; in data set [2]; in the data set on Phakopsora Pachyrhizi) was ≥ 80% each time. Also, in data set [3], the inhibition of growth at 20 ppm was ≥ 80%.
